Results: ChEMBL document CHEMBL4813917, “2-((1-Phenyl-1H-1,2,3-triazol-4-yl)methyl)-2-azabicyclo[3.2.1]octan-3-one derivatives: Simplification and modification of aconitine scaffold for the discovery of novel anticancer agents” (Eur J Med Chem, 2021)
Activity calls are given as the source filed them. No cut-off for these calls is given here.

Columns and labels:
[1] = tested on: PANC-1; test: Antiproliferative activity against human PANC-1 cells assessed as inhibition of cell proliferation measured after 24 hrs by MTT assay; format: functional, cell-based; details: PANC-1, 24 h
[2] = tested on: A549; test: Antiproliferative activity against human A549 cells assessed as inhibition of cell proliferation measured after 24 hrs by MTT assay; format: functional, cell-based; details: A549, 24 h
[3] = tested on: OVCAR-3; test: Antiproliferative activity against human OVCAR-3 cells assessed as inhibition of cell proliferation measured after 24 hrs by MTT assay; format: functional, cell-based; details: OVCAR-3, 24 h
[4] = tested on: HepG2; test: Antiproliferative activity against human HepG2 cells assessed as inhibition of cell proliferation measured after 24 hrs by MTT assay; format: functional, cell-based; details: HepG2, 24 h
[5] = tested on: LoVo; test: Antiproliferative activity against human LoVo cells assessed as inhibition of cell proliferation measured after 24 hrs by MTT assay; format: functional, cell-based
[6] = tested on: SGC-7901; test: Antiproliferative activity against human SGC-7901 cells assessed as inhibition of cell proliferation measured after 24 hrs by MTT assay; format: functional, cell-based; details: SGC-7901, 24 h
[7] = Cytotoxicity against human GES1 cells assessed as reduction in cell viability measured after 24 hrs by MTT assay; format: cell-based
[8] = target: Heat shock protein HSP 90-alpha (Homo sapiens, UniProt P07900); test: Inhibition of recombinant human N terminal his-tagged HSP90 alpha (1 to 732 residues) expressed in Escherichia coli measured after 60 mins by Flourescence polarization assay
[9] = Cytotoxicity against human MRC5 cells assessed as reduction in cell viability measured after 24 hrs by MTT assay; format: cell-based
[10] = Cytotoxicity against human IOSE80 cells assessed as reduction in cell viability measured after 24 hrs by MTT assay; format: cell-based
[11] = Cytotoxicity against human L02 cells assessed as reduction in cell viability measured after 24 hrs by MTT assay; format: cell-based
[12] = Cytotoxicity against human NCM460 cells assessed as reduction in cell viability measured after 24 hrs by MTT assay; format: cell-based
[13] = Cytotoxicity against human HPDE6c7 cells assessed as reduction in cell viability measured after 24 hrs by MTT assay; format: functional
[14] = tested on: SW-620; test: Antitumour activity against human SW-620 cells xenografted in Balb/c mouse assessed as inhibition of tumour growth at 5 mg/kg, ip measured after 21 days; format: functional; details: SW-620, ip, 504 h, time 21 day, read-out: TGI
[15] = tested on: SW-620; test: Antitumour activity against human SW-620 cells xenografted in Balb/c mouse assessed as decrease in Ki67 expression in tumour at 5 mg/kg, ip measured after 21 days immunochemical staining method; format: functional, organism-based; details: time 21.0 day

SMILES	IC50 [1]	IC50 [2]	IC50 [3]	IC50 [4]	IC50 [5]	IC50 [6]	IC50 [8]	CC50 at 24 h [7]	CC50 at 24 h [9]	CC50 at 24 h [10]	CC50 at 24 h [11]	CC50 at 24 h [12]	CC50 [13]	inhibition in vivo at 5 mg/kg [14]	Activity [15]
CC1(C)[C@H]2CC[C@]1(C)N(Cc1cn(-c3ccc(O)cc3)nn1)C(=O)C2	100 nM	140 nM	410 nM	80 nM	410 nM	330 nM									
CC1(C)[C@H]2CC[C@]1(C)N(Cc1cn(-c3ccccc3Cl)nn1)C(=O)C2	270 nM	70 nM	40 nM	60 nM	190 nM	220 nM	3.28 nM	5370 nM	4130 nM	13400 nM	20100 nM	10800 nM	3940 nM		
COc1ccccc1-n1cc(CN2C(=O)C[C@@H]3CC[C@@]2(C)C3(C)C)nn1	120 nM	350 nM	140 nM	110 nM	70 nM	280 nM									
CC1(C)[C@H]2CC[C@]1(C)N(Cc1cn(-c3ccc(F)cc3)nn1)C(=O)C2	110 nM	230 nM	200 nM	90 nM	40 nM	500 nM									
CC1(C)[C@H]2CC[C@]1(C)N(Cc1cn(-c3ccccc3F)nn1)C(=O)C2	150 nM	240 nM	300 nM	60 nM	40 nM	300 nM	2.68 nM	5160 nM	15100 nM	19200 nM	13300 nM	5260 nM	26200 nM		
CC1(C)[C@H]2CC[C@]1(C)N(Cc1cn(-c3ccc(C#N)cc3)nn1)C(=O)C2	250 nM	140 nM	380 nM	50 nM	90 nM	500 nM	21.8 nM	11200 nM	10800 nM	5520 nM	15700 nM	8140 nM	> 100000 nM		
CC1(C)[C@H]2CC[C@]1(C)N(Cc1cn(-c3ccc(Cl)cc3)nn1)C(=O)C2	440 nM	70 nM	160 nM	90 nM	160 nM	410 nM									
Cc1cccc(-n2cc(CN3C(=O)C[C@@H]4CC[C@@]3(C)C4(C)C)nn2)c1	240 nM	50 nM	160 nM	300 nM	50 nM	410 nM									
COc1cccc(-n2cc(CN3C(=O)C[C@@H]4CC[C@@]3(C)C4(C)C)nn2)c1	860 nM	240 nM	280 nM	70 nM	80 nM	590 nM									
CC1(C)[C@H]2CC[C@]1(C)N(Cc1cn(-c3ccccc3Br)nn1)C(=O)C2	280 nM	130 nM	140 nM	150 nM	60 nM	500 nM									
CC1(C)[C@H]2CC[C@]1(C)N(Cc1cn(-c3cccc(C#N)c3)nn1)C(=O)C2	260 nM	440 nM	230 nM	40 nM	320 nM	250 nM									
CC1(C)[C@H]2CC[C@]1(C)N(Cc1cn(-c3ccccc3O)nn1)C(=O)C2	230 nM	230 nM	90 nM	120 nM	540 nM	410 nM									
CC1(C)[C@H]2CC[C@]1(C)N(Cc1cn(-c3cccc(F)c3)nn1)C(=O)C2	220 nM	180 nM	430 nM	80 nM	90 nM	530 nM									
CC1(C)[C@H]2CC[C@]1(C)N(Cc1cn(-c3cccc(Cl)c3)nn1)C(=O)C2	260 nM	60 nM	50 nM	60 nM	70 nM	510 nM	7.38 nM	69800 nM	8840 nM	13500 nM	8510 nM	8410 nM	13000 nM		

Second part, led by results:

IC50 [1]	IC50 [2]	IC50 [3]	IC50 [4]	IC50 [5]	IC50 [6]	IC50 [8]	SMILES	CC50 at 24 h [7]	CC50 at 24 h [9]	CC50 at 24 h [10]	CC50 at 24 h [11]	CC50 at 24 h [12]	CC50 [13]	inhibition in vivo at 5 mg/kg [14]	Activity [15]
280 nM	180 nM	370 nM	70 nM	410 nM	270 nM		CC1(C)[C@H]2CC[C@]1(C)N(Cc1cn(-c3cccc(O)c3)nn1)C(=O)C2								
160 nM	70 nM	50 nM	90 nM	50 nM	240 nM	34 nM	CC1(C)[C@H]2CC[C@]1(C)N(Cc1cn(-c3ccccc3)nn1)C(=O)C2	6690 nM	9730 nM	23400 nM	6230 nM	19600 nM	> 100000 nM		
330 nM	50 nM	250 nM	100 nM	70 nM	480 nM		COc1ccc(-n2cc(CN3C(=O)C[C@@H]4CC[C@@]3(C)C4(C)C)nn2)cc1								
200 nM	80 nM	140 nM	110 nM	60 nM	450 nM		CC1(C)[C@H]2CC[C@]1(C)N(Cc1cn(-c3ccc(Br)cc3)nn1)C(=O)C2								
270 nM	400 nM	40 nM	480 nM	50 nM	390 nM		Cc1ccc(-n2cc(CN3C(=O)C[C@@H]4CC[C@@]3(C)C4(C)C)nn2)cc1								
3210 nM	> 10000 nM	480 nM	330 nM	260 nM	> 10000 nM		C=CCNC1=C2C[C@@H](C)C[C@H](OC)[C@H](O)[C@@H](C)/C=C(\C)[C@H](OC(N)=O)[C@@H](OC)/C=C\C=C(/C)C(=O)NC(=CC1=O)C2=O [TANESPIMYCIN]	7940 nM	14200 nM	21500 nM	11600 nM	14200 nM	19500 nM	29.6%	Active
250 nM	90 nM	150 nM	150 nM	80 nM	350 nM		Cc1ccccc1-n1cc(CN2C(=O)C[C@@H]3CC[C@@]2(C)C3(C)C)nn1								
240 nM	100 nM	110 nM	180 nM	140 nM	260 nM	7.99 nM	CC1(C)[C@H]2CC[C@]1(C)N(Cc1cn(-c3ccccc3C#N)nn1)C(=O)C2	9450 nM	23300 nM	13800 nM	46100 nM	37500 nM	16000 nM		
